These are literature values, as cited in patent US20070184116A1, “Pharmaceutical formulation containing unmilled flutamide” (priority 2004, published 2007).

SMILES strings stand for the structures.

Turning to `CC(C)C(=O)Nc1ccc([N+](=O)[O-])c(C(F)(F)F)c1` [Flutamide, 2-methyl-N-[4-nitro-3-(trifluoromethyl)phenyl]propanamide], for the setting “acid medium, for example 0.1% hydrochloric acid (pH corresponds to gastric juice)”, the “solubility in acid medium” value was “virtually insoluble”. Moreover, the solubility in water result (water) is on record as “virtually insoluble”.
